Measured values reported in patent US20230286973A1, “PROTEIN SECRETION INHIBITORS” (KEZAR LIFE SCIENCES, priority 2020, published 2023).

What was measured:
[1] = Liver Microsome Stability Assay (rat); conditions: rat liver microsomes, with NADPH, 1.0 uM compound
Procedure: (§1) Stability of a compound was assessed in the presence of liver microsomes from various sources—mouse, rat, monkey and human liver microsomes. 1.0 uM compound, 0.4% DMSO in 0.1 M Potassium Phosphate with 1.0 mg/mL liver microsomes, were incubated at 37° C. with or without 1 mM NADPH. The samples were quenched at 0, and 30 minutes.

[2] = system: TNFα-FL/Gaussia Luciferase; assay: Dox Induced TNFα-FL-Gluc Assay; format: cell-based; conditions: for IC50: 24 hr Dox induction, 293FRT/TO cells, read-out: 24 hr Dox Inducible TNFaFLGluc 293FRT/TO: Mean IC50; for 24 hr Dox Inducible TNFaFLGluc 293FRT/TO: TNF/PD1: ratio of TNFaFLGluc IC50 to PD1ssGluc IC50
In short: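 Cell line: stable Flp-In 293 T-REx, TNFα-FL(1-233)-Gaussia luciferase fusion, T-REx-inducible. Plated day -1; compounds in DMSO/media + doxycycline, 37 °C, 5% CO2. Undefined stereocentres = mixture tested.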

[3] = system: multiple myeloma cell line U266B1; assay: U266 Cell Viability Assay; format: cell-based, human; conditions: Homo sapiens, U-266, 48 h, U266B1 cells, Celltiter-Glo
In short: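 Luminescent ATP read-out (CellTiter-Glo) after 48 h compound exposure at 37° C., 5% CO2; cells maintained in RPMI 1640/10% FBS/2 mM glutamine/pen-strep, compounds diluted in DMSO/media.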

[4] = Liver Microsome Stability Assay (monkey); conditions: monkey liver microsomes, with NADPH, 1.0 uM compound
Procedure: as §1

[5] = Liver Microsome Stability Assay (human); conditions: human liver microsomes, with NADPH, 1.0 uM compound
Procedure: as §1

[6] = system: PD1-ss+10aa/Gaussia Luciferase; assay: Dox-Induced PD1-ss-Gluc Assay; format: cell-based; conditions: 24 hr Dox induction; 293FRT/TO cells; read-out: 24 hr Dox Inducible PD1ssGluc 293FRT/TO: Mean IC50
In short: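 The cell line was made by transfecting Flp-In 293 T-REx cells with a PD1 signal sequence+10aa–Gaussia luciferase fusion under T-REx control and selecting with hygromycin and blasticidin. Cells were seeded, and next day compound plus doxycycline was added at 37 °C, 5% CO2.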

[7] = system: multiple myeloma cell line NCI-H929; assay: H929 Cell Viability Assay; format: cell-based, human; conditions: Homo sapiens, NCI-H929, 48 h, NCI-H929 cells, Celltiter-Glo
In short: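 Cells in RPMI 1640/10% FBS; compound dilutions in DMSO/media; 48 h, 37° C, 5% CO2; CellTiter-Glo luciferase readout for viability.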

[8] = system: IL-2-FL/Gaussia Luciferase; assay: Dox Induced IL2-FL-Gluc Assay; format: cell-based; conditions: for IC50: 24 hr Dox induction, 293FRT/TO cells, read-out: 24 hr Dox Inducible IL2FLGluc 293FRT/TO: Mean IC50; for 24 hr Dox Inducible IL2FLGluc 293FRT/TO: IL2/PD1: ratio of IL2FLGluc IC50 to PD1ssGluc IC50
In short: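 Stable Flp-In 293 T-REx line, Tet-regulated IL-2 (aa 1-153)–Gaussia luciferase fusion; hygromycin/blasticidin selected. Plated day -1; compound + doxycycline added next day; 37° C, 5% CO2.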

[9] = system: HER3-ss+4aa/Gaussia Luciferase; assay: Dox-Induced Her3-ss-Gluc Assay; format: cell-based; conditions: 24 hr Dox induction; 293FRT/TO cells; read-out: 24 hr Dox Inducible Her3(ss + 4)Gluc 293FRT/TO: Mean IC50
In short: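 Flp-In 293 T-REx cells, stable HER3-ss+4aa/Gaussia luciferase insert, hygromycin/blasticidin selected; plated day before; compound in DMSO/media + doxycycline; 37° C., 5% CO2.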

[10] = Liver Microsome Stability Assay (mouse); conditions: mouse liver microsomes, with NADPH, 1.0 uM compound
Procedure: as §1

CC(C)n1cc(/C=C/c2csc(NC(=O)c3cccn3Cc3ccnc(F)c3)n2)nc1C#N [Compound B93, (E)-N-(4-(2-(2-cyano-1-isopropyl-1H-imidazol-4-yl)vinyl)thiazol-2-yl)-1-((2-fluoropyridin-4-yl)methyl)-1H-pyrrole-2-carboxamide]
Liver Microsome Stability (Multiple Species): Rat - % Remaining after 30 min w/NADPH [1]: 11.5%
IC50 [2]: > 25 µM
24 hr Dox Inducible TNFaFLGluc 293FRT/TO: TNF/PD1 [2]: >36.4
EC50 [3]: > 25 µM
Liver Microsome Stability (Multiple Species): Monkey - % Remaining after 30 min w/NADPH [4]: 0.03%
Liver Microsome Stability (Multiple Species): Human - % Remaining after 30 min w/NADPH [5]: 0.85%
IC50 [6]: 686 nM
EC50 [7]: 20.9 µM
IC50 [8]: 11 µM
24 hr Dox Inducible IL2FLGluc 293FRT/TO: IL2/PD1 [8]: 16
IC50 [9]: 2.73 µM
Liver Microsome Stability (Multiple Species): Mouse - % Remaining after 30 min w/NADPH [10]: 12.7%

CC(C)c1cc(/C=C/c2csc(NC(=O)c3cccn3Cc3ccnc(F)c3)n2)n(C)n1 [Compound B94, (E)-1-((2-fluoropyridin-4-yl)methyl)-N-(4-(2-(3-isopropyl-1-methyl-1H-pyrazol-5-yl)vinyl)thiazol-2-yl)-1H-pyrrole-2-carboxamide]
Liver Microsome Stability (Multiple Species): Rat - % Remaining after 30 min w/NADPH [1]: 31.1%
IC50 [2]: > 25 µM
24 hr Dox Inducible TNFaFLGluc 293FRT/TO: TNF/PD1 [2]: >24.5
EC50 [3]: > 25 µM
Liver Microsome Stability (Multiple Species): Monkey - % Remaining after 30 min w/NADPH [4]: 0.06%
Liver Microsome Stability (Multiple Species): Human - % Remaining after 30 min w/NADPH [5]: 0.55%
IC50 [6]: 1020 nM
EC50 [7]: > 25 µM
IC50 [8]: > 25 µM
24 hr Dox Inducible IL2FLGluc 293FRT/TO: IL2/PD1 [8]: >24
IC50 [9]: 0.877 µM
Liver Microsome Stability (Multiple Species): Mouse - % Remaining after 30 min w/NADPH [10]: 20%

CC(C)n1ccnc1/C=C/c1csc(NC(=O)c2cccn2Cc2ccnc(F)c2)n1 [Compound B95, (E)-1-((2-fluoropyridin-4-yl)methyl)-N-(4-(2-(1-isopropyl-1H-imidazol-2-yl)vinyl)thiazol-2-yl)-1H-pyrrole-2-carboxamide]
Liver Microsome Stability (Multiple Species): Rat - % Remaining after 30 min w/NADPH [1]: 0.54%
IC50 [2]: > 25 µM
24 hr Dox Inducible TNFaFLGluc 293FRT/TO: TNF/PD1 [2]: >32.0
EC50 [3]: > 25 µM
Liver Microsome Stability (Multiple Species): Monkey - % Remaining after 30 min w/NADPH [4]: 0.03%
Liver Microsome Stability (Multiple Species): Human - % Remaining after 30 min w/NADPH [5]: 0.04%
IC50 [6]: 782 nM
EC50 [7]: > 25 µM
IC50 [8]: > 25 µM
24 hr Dox Inducible IL2FLGluc 293FRT/TO: IL2/PD1 [8]: >32
IC50 [9]: > 25 µM
Liver Microsome Stability (Multiple Species): Mouse - % Remaining after 30 min w/NADPH [10]: 0.08%

CC(C)c1cc(/C=C/c2csc(NC(=O)c3cccn3Cc3ccnc(F)c3)n2)nn1C [Compound B96, (E)-1-((2-fluoropyridin-4-yl)methyl)-N-(4-(2-(5-isopropyl-1-methyl-1H-pyrazol-3-yl)vinyl)thiazol-2-yl)-1H-pyrrole-2-carboxamide]
Liver Microsome Stability (Multiple Species): Rat - % Remaining after 30 min w/NADPH [1]: 13.6%
IC50 [2]: > 25 µM
24 hr Dox Inducible TNFaFLGluc 293FRT/TO: TNF/PD1 [2]: >82.3
EC50 [3]: > 25 µM
Liver Microsome Stability (Multiple Species): Monkey - % Remaining after 30 min w/NADPH [4]: 0.19%
Liver Microsome Stability (Multiple Species): Human - % Remaining after 30 min w/NADPH [5]: 0.79%
IC50 [6]: 304 nM
EC50 [7]: 20.7 µM
IC50 [8]: 7.59 µM
24 hr Dox Inducible IL2FLGluc 293FRT/TO: IL2/PD1 [8]: 25
IC50 [9]: 3.3 µM
Liver Microsome Stability (Multiple Species): Mouse - % Remaining after 30 min w/NADPH [10]: 8.33%

CC1CCn2cnc(/C=C/c3csc(NC(=O)c4cccn4Cc4ccnc(F)c4)n3)c2C1 (stereo not drawn) [Compound B97, (E)-1-((2-fluoropyridin-4-yl)methyl)-N-(4-(2-(7-methyl-5,6,7,8-tetrahydroimidazo[1,5-a]pyridin-1-yl)vinyl)thiazol-2-yl)-1H-pyrrole-2-carboxamide]
Liver Microsome Stability (Multiple Species): Rat - % Remaining after 30 min w/NADPH [1]: 10.8%
IC50 [2]: > 25 µM
24 hr Dox Inducible TNFaFLGluc 293FRT/TO: TNF/PD1 [2]: >103
EC50 [3]: > 25 µM
Liver Microsome Stability (Multiple Species): Monkey - % Remaining after 30 min w/NADPH [4]: 0.13%
Liver Microsome Stability (Multiple Species): Human - % Remaining after 30 min w/NADPH [5]: 0.3%
IC50 [6]: 244 nM
EC50 [7]: > 25 µM
IC50 [8]: 7.51 µM
24 hr Dox Inducible IL2FLGluc 293FRT/TO: IL2/PD1 [8]: 31
IC50 [9]: 4.79 µM
Liver Microsome Stability (Multiple Species): Mouse - % Remaining after 30 min w/NADPH [10]: 13.8%

CC1CCc2c(/C=C/c3csc(NC(=O)c4cccn4Cc4ccnc(F)c4)n3)ncn2C1 (stereo not drawn) [Compound B98, (E)-1-((2-fluoropyridin-4-yl)methyl)-N-(4-(2-(6-methyl-5,6,7,8-tetrahydroimidazo[1,5-a]pyridin-1-yl)vinyl)thiazol-2-yl)-1H-pyrrole-2-carboxamide]
Liver Microsome Stability (Multiple Species): Rat - % Remaining after 30 min w/NADPH [1]: 6.91%
IC50 [2]: > 25 µM
24 hr Dox Inducible TNFaFLGluc 293FRT/TO: TNF/PD1 [2]: >814
EC50 [3]: > 25 µM
Liver Microsome Stability (Multiple Species): Monkey - % Remaining after 30 min w/NADPH [4]: 0.72%
Liver Microsome Stability (Multiple Species): Human - % Remaining after 30 min w/NADPH [5]: 0.2%
IC50 [6]: 30.7 nM
EC50 [7]: > 25 µM
IC50 [8]: 2.29 µM
24 hr Dox Inducible IL2FLGluc 293FRT/TO: IL2/PD1 [8]: 74
IC50 [9]: 1.59 µM
Liver Microsome Stability (Multiple Species): Mouse - % Remaining after 30 min w/NADPH [10]: 6.81%

Cc1cc(C(=O)Nc2nc(/C=C/c3cn(C(C)C)cn3)cs2)n(Cc2ccnc(F)c2)c1 [Compound B99, (E)-1-((2-fluoropyridin-4-yl)methyl)-N-(4-(2-(1-isopropyl-1H-imidazol-4-yl)vinyl)thiazol-2-yl)-4-methyl-1H-pyrrole-2-carboxamide]
Liver Microsome Stability (Multiple Species): Rat - % Remaining after 30 min w/NADPH [1]: 49.7%
IC50 [2]: > 25 µM
24 hr Dox Inducible TNFaFLGluc 293FRT/TO: TNF/PD1 [2]: >28.4
EC50 [3]: > 25 µM
Liver Microsome Stability (Multiple Species): Monkey - % Remaining after 30 min w/NADPH [4]: 2.99%
Liver Microsome Stability (Multiple Species): Human - % Remaining after 30 min w/NADPH [5]: 4.91%
IC50 [6]: 880 nM
EC50 [7]: > 25 µM
IC50 [8]: > 25 µM
24 hr Dox Inducible IL2FLGluc 293FRT/TO: IL2/PD1 [8]: >28
IC50 [9]: 10.1 µM
Liver Microsome Stability (Multiple Species): Mouse - % Remaining after 30 min w/NADPH [10]: 49.5%

CC1CCCc2c(/C=C/c3csc(NC(=O)c4cccn4Cc4ccnc(F)c4)n3)ncn21 (stereo not drawn) [Compound B101, (E)-1-((2-fluoropyridin-4-yl)methyl)-N-(4-(2-(5-methyl-5,6,7,8-tetrahydroimidazo[1,5-a]pyridin-1-yl)vinyl)thiazol-2-yl)-1H-pyrrole-2-carboxamide]
Liver Microsome Stability (Multiple Species): Rat - % Remaining after 30 min w/NADPH [1]: 2.51%
IC50 [2]: 19 µM
24 hr Dox Inducible TNFaFLGluc 293FRT/TO: TNF/PD1 [2]: 1640
EC50 [3]: 19.5 µM
Liver Microsome Stability (Multiple Species): Monkey - % Remaining after 30 min w/NADPH [4]: 0.25%
Liver Microsome Stability (Multiple Species): Human - % Remaining after 30 min w/NADPH [5]: 0.38%
IC50 [6]: 11.6 nM
EC50 [7]: 15.3 µM
IC50 [8]: 6.53 µM
24 hr Dox Inducible IL2FLGluc 293FRT/TO: IL2/PD1 [8]: 560
IC50 [9]: 4.28 µM
Liver Microsome Stability (Multiple Species): Mouse - % Remaining after 30 min w/NADPH [10]: 6.67%

CC1CCCn2cnc(/C=C/c3csc(NC(=O)c4cccn4Cc4ccnc(F)c4)n3)c21 (stereo not drawn) [Compound B102, (E)-1-((2-fluoropyridin-4-yl)methyl)-N-(4-(2-(8-methyl-5,6,7,8-tetrahydroimidazo[1,5-a]pyridin-1-yl)vinyl)thiazol-2-yl)-1H-pyrrole-2-carboxamide]
Liver Microsome Stability (Multiple Species): Rat - % Remaining after 30 min w/NADPH [1]: 6.8%
IC50 [2]: > 25 µM
24 hr Dox Inducible TNFaFLGluc 293FRT/TO: TNF/PD1 [2]: >681
EC50 [3]: > 25 µM
Liver Microsome Stability (Multiple Species): Monkey - % Remaining after 30 min w/NADPH [4]: 0.85%
Liver Microsome Stability (Multiple Species): Human - % Remaining after 30 min w/NADPH [5]: 0.71%
IC50 [6]: 36.7 nM
EC50 [7]: 21.3 µM
IC50 [8]: 6.36 µM
24 hr Dox Inducible IL2FLGluc 293FRT/TO: IL2/PD1 [8]: 170
IC50 [9]: 4.56 µM
Liver Microsome Stability (Multiple Species): Mouse - % Remaining after 30 min w/NADPH [10]: 9.83%
